Test results: patent US20180133211A1, “METHODS AND MATERIALS FOR PROMOTING BONE FORMATION” (Mayo Foundation for Medical Education and Research, priority 2015, published 2018)

Tests used:
Type in all cases: cell-based, mouse
MC3T3-E1 cells [1] = test: RT-qPCR mRNA expression; details: MC3T3-E1, 3 μM; for mRNA expression of Bglap2, Colla1, Lox and Alpl: 14 days
Experimental: (§1) Total RNA was extracted using the SV Total RNA Isolation kit (Promega) following the supplier's instructions. cDNA was synthesized from about 0.5 μg RNA using the First Strand cDNA Synthesis kit (Roche) as described by the supplier. The resulting cDNAs were subjected to quantitative PCR amplification with a real-time cycler using the QUANTITECT™ SYBR® Green PCR Kit (Qiagen, Hilden, Germany) for the genes Alpl, Fas, Lox, Tet1, Tet2, and TAQMAN® Gene expression Master Mix (Applied Biosystems, Foster City, Calif., USA) for measuring Runx2, Bglap2, Colla1, Tnfsf11, and 18S rRNA expression (for primers, see Table 1). SYBR-Green RT-qPCR was started with an initial denaturation step at 95° C. for 10 minutes and then continued with 45 cycles consisting of 30 seconds denaturation at 95° C., 30 seconds annealing at primer-specific temperatures, and extension at 72° C. For measurement of the TAQMAN® assays, an initial denaturation at 95° C. for 10 minutes was applied, followed by 45 cycles alternating 60 seconds at 60° C. and 15 seconds at 95° C. All RT-qPCR assays were performed in triplicate, and expression was evaluated using the comparative quantification method (Pfaffl, Nucleic Acids Res., 29:e45 (2001)).

MLO-Y4 cells [2] = test: RT-qPCR mRNA expression; details: MLO-Y4, 3 μM
Experimental: as §1

RAW 264.7 cells [3] = test: RT-qPCR mRNA expression; details: RAW 264.7, 3 μM
Experimental: as §1

MC3T3-E1 cells [4] = test: Caspase activity (CASPASE-GLO); details: MC3T3-E1, 3 μM, 24 hours
Experimental: (§2) Caspase 3/7 and caspase 8 activities were measured by using the CASPASE-GLO® 3/7 and CASPASE-GLO® 8 assay Kit (Promega, Madison, Wis., USA) following manufactures instructions. Briefly, after treatments, cells were lysed, and substrate cleavage by caspases was measured by the generated luminescent signal with a 96 multi-well luminometer (Glomax, Promega). Each experiment was performed in quintuplicate and experiments were carried out twice.

MLO-Y4 cells [5] = test: Caspase activity (CASPASE-GLO); details: MLO-Y4, 3 μM, 24 hours
Experimental: as §2

RAW 264.7 cells [6] = test: Caspase activity (CASPASE-GLO); details: RAW 264.7, 3 μM, 24 hours
Experimental: as §2

MC3T3-E1 cells [7] = test: Global cytosine 5-hydroxymethylation (5hmC); details: MC3T3-E1, 3 μM, 16 hours
Experimental: (§3) Cells were fixed with 4% paraformaldehyde in PBS for 20 minutes at room temperature and permeabilized with 0.2% triton in 4% paraformaldehyde in PBS. Thereafter, cell layers were blocked for 20 minutes with 10% blocking reagent (Roche) and incubated for one further hour with 0.5 μg/mL anti-5hmC antibody (Abgent). Afterwards, the cells were washed thrice with PBS and incubated for one further hour with an Alexa488 labeled secondary antibody (Invitrogen) diluted 1:300 in blocking buffer. Finally, nuclei were stained with Hoechst 33258 dye (Polysciences).
(§4) For immunostaining, cell slides were mounted with VECTASHIELD® mounting media, and immunofluorescence was visualized on a Leica laser-scanning microscope. No signal was found by using only the Alexa488 labeled secondary antibody (Invitrogen). For quantification of global cytosine 5hmC, the fluorescence in the plates was measured with a multiwell plate reader (Tecan). The amount of DNA (nuclei signal) was estimated using a standard curve prepared from calf thymus DNA (Roche). The signal of the fluorescence of the 5hmC staining was normalized to the amount of DNA. Also, in this case, no signals were found when only the Alexa488 labeled secondary antibody (Invitrogen) was used.

MLO-Y4 cells [8] = test: Global cytosine 5-hydroxymethylation (5hmC); details: MLO-Y4, 3 μM, 16 hours
Experimental: as §3, §4

RAW 264.7 cells [9] = test: Global cytosine 5-hydroxymethylation (5hmC); details: RAW 264.7, 3 μM, 16 hours
Experimental: as §3, §4

MC3T3-E1 cells [10] = test: Cell metabolic activity (EZ4U, MTT similar assay); details: 24 hours of treatment, read-out: half-maximal effective concentration (EC50), cell metabolic activity
Experimental: (§5) To assess cell metabolic activity, a commercially available, MTT similar assay (EZ4U; Biomedica, Vienna, Austria) was used. For this purpose, the cell lines were incubated with increasing concentrations of L- or DL-SFN.

MLO-Y4 cells [11] = test: Cell metabolic activity (EZ4U, MTT similar assay); details: 24 hours of treatment, read-out: half-maximal effective concentration (EC50), cell metabolic activity
Experimental: as §5

RAW 264.7 cells [12] = test: Cell metabolic activity (EZ4U, MTT similar assay); details: read-out: half-maximal effective concentration (EC50), cell metabolic activity
Experimental: as §5

[13] = system: neonatal calvarial explants; test: ECM mineralization by Alizarin Red stain in calvarial explants; details: newborn calvarial explants, 3 μM
Experimental: Calvariae from 2 to 3-day-old and from 7-week old C57BL/6 mice were dissected aseptically. The calvarial bone explants were cultured in 48-well plates in α-MEM (Biochrom) containing 10% FCS (Biochrom), 50 μg/mL ascorbic acid (Sigma-Aldrich), 5 mM β-glycerophosphate (Sigma-Aldrich), and 10 μg/mL gentamicin (Sigma-Aldrich). […] Thereafter, one part of the calvariae were fixed for 1 hour in 4% para-formaldehyde (PFA), and mineralization was measured by Alizarin Red S stain (Sigma-Aldrich). For this purpose, Alizarin Red S dye was extracted using 10% cetylpyridinium chloride (CPC) in 10 mM sodiumphosphate (pH=7.0) for 45 minutes at room temperature. Alizarin Red S absorbance was measured at 562 nm in a multi-plate reader (Tecan, Maennedorf, Switzerland) and normalized to total protein amount measured by bicinchoninic acid assay (Thermo Fisher Scientific, Waltham, Mass., USA). From the other part of the calvariae, total RNA was extracted.

## C[S+]([O-])CCCCN=C=S (racemic) [DL-SFN]
MC3T3-E1 cells [1]
  Runx2 mRNA expression: stimulates
  mRNA expression of Bglap2, Colla1, Lox and Alpl: increased
MC3T3-E1 cells [1]; 8 hours
  Fas mRNA expression: not affected
MC3T3-E1 cells [1]; 16 hours
  Fas mRNA expression: significantly increased
MLO-Y4 cells [2]
  mRNA expression for Tet1 or Tet2: did not positively change
MLO-Y4 cells [2]; 3 and 8 days, significant only at 8 days
  Tnfsf11 mRNA expression: reduced
MLO-Y4 cells [2]; 8 hours
  Fas mRNA expression: not affected
MLO-Y4 cells [2]; 16 hours
  Fas mRNA expression: significantly increased
RAW 264.7 cells [3]; 8 and 16 hours, Tet2 not upregulated
  Tet1 mRNA levels: upregulated
RAW 264.7 cells [3]; 8 hours
  expression of the pro-apoptotic gene Fas: not at 8 hours
RAW 264.7 cells [3]; 16 hours
  expression of the pro-apoptotic gene Fas: up-regulated
MC3T3-E1 cells [4]
  activities of the caspases 3/7: significant increase
  activity of caspase 8: significantly increased
MLO-Y4 cells [5]
  activities of the caspases 3/7: significant increase
  activity of caspase 8: significantly increased
RAW 264.7 cells [6]
  Caspase 8 and Caspase 3/7 activity: stimulated
MC3T3-E1 cells [7]
  global 5hmC: significant global increase
MLO-Y4 cells [8]
  5hmC levels: did not elevate
RAW 264.7 cells [9]
  increase of global levels of 5hmC: ~3 fold
MC3T3-E1 cells [10]
  EC50: ~13 µM
MLO-Y4 cells [11]
  EC50: ~6 µM
RAW 264.7 cells [12]
  EC50: ~6.01 µM
[13]
  ECM mineralization: significantly increased

## C[S+]([O-])CCCCN=C=S [L-SFN]
MC3T3-E1 cells [1]; 8 hours
  Fas mRNA expression: not affected
MC3T3-E1 cells [1]
  mRNA expression of Bglap2, Colla1, Lox and Alpl: increased
MLO-Y4 cells [2]; 8 hours
  Fas mRNA expression: not affected
RAW 264.7 cells [3]; 8 hours
  expression of the pro-apoptotic gene Fas: not at 8 hours
RAW 264.7 cells [3]; 16 hours
  expression of the pro-apoptotic gene Fas: up-regulated
MC3T3-E1 cells [4]
  activity of caspase 8: significantly increased
MLO-Y4 cells [5]
  activity of caspase 8: significantly increased
RAW 264.7 cells [6]
  Caspase 8 and Caspase 3/7 activity: stimulated
MC3T3-E1 cells [7]
  global 5hmC: significant global increase
MLO-Y4 cells [8]
  5hmC levels: did not elevate
RAW 264.7 cells [9]
  increase of global levels of 5hmC: < 2 fold
MC3T3-E1 cells [10]
  EC50: ~48 µM
MLO-Y4 cells [11]
  EC50: ~11 µM
RAW 264.7 cells [12]
  EC50: ~10.1 µM
[13]
  ECM mineralization: significantly increased
